Measured values as given in PubChem BioAssay AID1918953 (Molecular Pharmacology Branch, DTP, NCI, 2023).
“And” between values parts separate entries of the source, which are not always exact repeats. Equal entries are not always repeated.

Tested on: MDA-MB-231 complex spheroid viability
Test: Anticancer human tumor MDA-MB-231/ATCC cell line growth inhibition;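 also: drug exposure lasted 7 days starting on day 3 of spheroid growth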
Conditions: for viability, T/C: stronger effect = lower value
In short: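 Complex spheroids of tumor cells with HUVEC and human MSCs, exposed to iadademstat combined with other agents. Each agent tested in half-log steps from near clinical Cmax (else 10 microM top), DMSO ≤0.25%.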

[1] = curve of first compound, second compound 0.1 µM
[2] = curve of first compound, second compound 0.316 µM
[3] = curve of first compound, second compound 1 µM
[4] = curve of first compound, second compound 3.16 µM
[5] = curve of first compound, second compound 10 µM
[6] = second compound 0.1 µM, first compound 0.00316 µM
[7] = second compound 0.1 µM, first compound 0.01 µM
[8] = second compound 0.1 µM, first compound 0.0316 µM
[9] = second compound 0.1 µM, first compound 0.1 µM
[10] = second compound 0.1 µM, first compound 0.316 µM
[11] = second compound 0.1 µM, first compound 1 µM
[12] = second compound 0.316 µM, first compound 0.00316 µM
[13] = second compound 0.316 µM, first compound 0.01 µM
[14] = second compound 0.316 µM, first compound 0.0316 µM
[15] = second compound 0.316 µM, first compound 0.1 µM
[16] = second compound 0.316 µM, first compound 0.316 µM
[17] = second compound 0.316 µM, first compound 1 µM
[18] = second compound 1 µM, first compound 0.00316 µM
[19] = second compound 1 µM, first compound 0.01 µM
[20] = second compound 1 µM, first compound 0.0316 µM
[21] = second compound 1 µM, first compound 0.1 µM
[22] = second compound 1 µM, first compound 0.316 µM
[23] = second compound 1 µM, first compound 1 µM
[24] = second compound 3.16 µM, first compound 0.00316 µM
[25] = second compound 3.16 µM, first compound 0.01 µM
[26] = second compound 3.16 µM, first compound 0.0316 µM
[27] = second compound 3.16 µM, first compound 0.1 µM
[28] = second compound 3.16 µM, first compound 0.316 µM
[29] = second compound 3.16 µM, first compound 1 µM
[30] = second compound 10 µM, first compound 0.00316 µM
[31] = second compound 10 µM, first compound 0.01 µM
[32] = second compound 10 µM, first compound 0.0316 µM
[33] = second compound 10 µM, first compound 0.1 µM
[34] = second compound 10 µM, first compound 0.316 µM
[35] = second compound 10 µM, first compound 1 µM

SMILES	IC50 [1] [nM]	IC50 [2] [nM]	IC50 [3] [nM]	IC50 [4] [nM]	IC50 [5] [nM]	viability, T/C [6] [%]	viability, T/C [7] [%]	viability, T/C [8] [%]	viability, T/C [9] [%]	viability, T/C [10] [%]	viability, T/C [11] [%]	viability, T/C [12] [%]	viability, T/C [14] [%]	viability, T/C [15] [%]	viability, T/C [20] [%]	viability, T/C [21] [%]	viability, T/C [26] [%]	viability, T/C [27] [%]	viability, T/C [32] [%]	viability, T/C [33] [%]	further results
COc1cc(Nc2ncc3c(n2)-c2ccc(Cl)cc2C(c2c(F)cccc2OC)=NC3)ccc1C(=O)O + NC1CC1c1ccc(-c2cccc(O)c2)cc1	< 3.16	< 3.16	< 3.16	< 3.16	< 3.16	43.8	48.9	43	40.8	32.4	21.9	40.7	38.5	34.7	38.3	38	41.1	35	31.3	31.1	viability, T/C [13]: 40%; viability, T/C [16]: 27.3%; viability, T/C [17]: 21.4%; viability, T/C [18]: 37.5%; viability, T/C [19]: 39.9%; viability, T/C [22]: 25.1%; viability, T/C [23]: 18.6%; viability, T/C [24]: 41.4%; viability, T/C [25]: 41.4%; viability, T/C [28]: 28.1%; viability, T/C [29]: 18.9%; viability, T/C [30]: 30.7%; viability, T/C [31]: 33%; viability, T/C [34]: 22.4%; viability, T/C [35]: 15.7%
COc1ccc([C@@H](O)c2cc(-c3ncnc4cc(N5CCOCC5)ccc34)c(F)cc2Cl)nn1 + NC1CCC(NC2CC2c2ccccc2)CC1	483	555	669	505	280			89.3	75.7	55.6	40.3		91.5	79.3	96.6	79.8	74.2	72.1	62.8	61	viability, T/C (second compound 0.1 µM, first compound 3.16 µM): 27.9%; viability, T/C (second compound 0.1 µM, first compound 10 µM): 24.6%; viability, T/C [16]: 59.1%; viability, T/C [17]: 41.2%; viability, T/C (second compound 0.316 µM, first compound 3.16 µM): 27.6%; viability, T/C (second compound 0.316 µM, first compound 10 µM): 26%; viability, T/C [22]: 65.7%; viability, T/C [23]: 41.9%; viability, T/C (second compound 1 µM, first compound 3.16 µM): 28.9%; viability, T/C (second compound 1 µM, first compound 10 µM): 23.8%; viability, T/C [28]: 54.2%; viability, T/C [29]: 42.3%; viability, T/C (second compound 3.16 µM, first compound 3.16 µM): 27.2%; viability, T/C (second compound 3.16 µM, first compound 10 µM): 24.4%; viability, T/C [34]: 47.5%; viability, T/C [35]: 36.5%; viability, T/C (second compound 10 µM, first compound 3.16 µM): 28%; viability, T/C (second compound 10 µM, first compound 10 µM): 24.3%
Cn1ncnc1C1c2n[nH]c(=O)c3cc(F)cc(c23)NC1c1ccc(F)cc1 (configuration not stated)																					viability, T/C (compound 0.000316 µM): 91% and 96.8%; viability, T/C (compound 0.001 µM): 95.8% and 101%; viability, T/C (compound 0.00316 µM): 84.4% and 94.8%; viability, T/C (compound 0.01 µM): 85.8% and 78.8%; viability, T/C (compound 0.0316 µM): 78.8% and 65.3%; viability, T/C (compound 0.1 µM): 74.7% and 72.4%; IC50 (curve of compound): > 100 nM
CC1COCCN1c1cc(-c2ccnn2C)c2ccnc(-c3ccn[nH]3)c2n1 (configuration not stated) + NC1CCC(NC2CC2c2ccccc2)CC1	31.1	34.3	25.7	16.5	10.7	102	77.8	50.4	33.3	28.4	28.8	93.7	50.7	37.4	45.8	34.5	40.2	33	32.8	30	viability, T/C [13]: 73.8%; viability, T/C [16]: 29.3%; viability, T/C [17]: 28.9%; viability, T/C [18]: 90%; viability, T/C [19]: 69.4%; viability, T/C [22]: 27.4%; viability, T/C [23]: 30.7%; viability, T/C [24]: 72.8%; viability, T/C [25]: 57.4%; viability, T/C [28]: 29.3%; viability, T/C [29]: 30.7%; viability, T/C [30]: 56.9%; viability, T/C [31]: 51%; viability, T/C [34]: 28%; viability, T/C [35]: 28.9%
CC[C@@]1(O)C(=O)OCc2c1cc1n(c2=O)Cc2cc3c(CN(C)C)c(O)ccc3nc2-1 + NC1CC1c1ccc(-c2cccc(O)c2)cc1	1.63	0.845	0.672	1.04	< 0.316	33.1	23.5	27.3	22			28.9	26	20.4	24.6	20.5	25	20.9	22.3	16.2	viability, T/C (second compound 0.1 µM, first compound 0.000316 µM): 72.6%; viability, T/C (second compound 0.1 µM, first compound 0.001 µM): 62.5%; viability, T/C (second compound 0.316 µM, first compound 0.000316 µM): 61.8%; viability, T/C (second compound 0.316 µM, first compound 0.001 µM): 48.1%; viability, T/C [13]: 25.3%; viability, T/C (second compound 1 µM, first compound 0.000316 µM): 62.3%; viability, T/C (second compound 1 µM, first compound 0.001 µM): 43.6%; viability, T/C [18]: 32%; viability, T/C [19]: 25.1%; viability, T/C (second compound 3.16 µM, first compound 0.000316 µM): 57.2%; viability, T/C (second compound 3.16 µM, first compound 0.001 µM): 50.8%; viability, T/C [24]: 29.4%; viability, T/C [25]: 25.5%; viability, T/C (second compound 10 µM, first compound 0.000316 µM): 49%; viability, T/C (second compound 10 µM, first compound 0.001 µM): 36.1%; viability, T/C [30]: 24.3%; viability, T/C [31]: 22.5%
O=C(C=Cn1cnc(-c2cc(C(F)(F)F)cc(C(F)(F)F)c2)n1)NNc1cnccn1 + NC1CC1c1ccc(-c2cccc(O)c2)cc1	< 3.16	< 3.16	< 3.16	< 3.16	< 3.16	27.7	27.4	13.1	5.67	4.44	5.61	28.6	13.2	5.36	14.6	4.77	13.6	5.37	14.9	5.78	viability, T/C [13]: 27.3%; viability, T/C [16]: 5.11%; viability, T/C [17]: 5.35%; viability, T/C [18]: 25.6%; viability, T/C [19]: 25.4%; viability, T/C [22]: 4.77%; viability, T/C [23]: 4.71%; viability, T/C [24]: 27%; viability, T/C [25]: 25%; viability, T/C [28]: 6.01%; viability, T/C [29]: 4.79%; viability, T/C [30]: 22.5%; viability, T/C [31]: 17.5%; viability, T/C [34]: 6.15%; viability, T/C [35]: 7.13%
